The values that follow come from patent publication US20110076293A1, “TRIPTOLIDE DERIVATIVES FOR MODULATION OF APOPTOSIS AND IMMUNOSUPPRESSION” (priority 2002, published 2011).

Counter-ions that a name gives are not always drawn. Like-named read-outs stand apart in the source and are kept apart here.

In data set [1] the test system is Jurkat human T lymphocyte cell line. Briefly: Apoptosis assay (Annexin V) of compounds incubated with human serum. The following applies: for EC50: Homo sapiens, Jurkat. In short, it runs like this:
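Test compounds at 20 mM were preincubated in pooled human serum at 37° C for varying times, then serially diluted to final 1–10,000 nM. Jurkat cells (1×10^5 per well) were exposed for 24 h at 37° C, and apoptosis was scored by Annexin V-FITC flow cytometry. ED50 came from dose-response curves, and % conversion was expressed relative to the triptolide ED50 in the same serum.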

Data set [2] in a line: in vitro. The protocol: Compounds of formula I, as shown in Table 1 above and in the Examples, were assayed for their capacity to induce apoptosis in cells from the Jurkat human T lymphocyte cell line, after incubation with pooled human serum for varying periods of time at 37° C. (see Example 19). An ester prodrug, triptolide-14-succinate, designated PG490-88, was included for comparison. The extent of conversion to triptolide after such incubation was also independently determined by HPLC analysis.
Prodrug conversions to triptolide as determined independently by HPLC are given in […].

Data set [3] concerns IL-2 production in Jurkat human T lymphocyte cells. Put plainly: IL-2 production assay for activity of compounds incubated with human serum. The following applies: for IC50: IL-2 production in Jurkat cells after incubation with pooled human serum for 48 hours at 37° C.; for Conversion (%): percent of the IC50 value produced by triptolide (PG490) in the same experiment, human serum 48 hours.

Where [4] appears, read: 48 h, read-out: ED50 (nM) in apoptosis assay after incubation with serum, incubation time in human serum 48 hours, 37° C.
[5] abbreviates: incubation time in human serum 48 hours.

As for `CC(C)[C@]12O[C@H]1[C@@H]1O[C@]13[C@]1(O[C@H]1C[C@H]1C4=C(CC[C@@]13C)C(=O)OC4)[C@@H]2OC(=O)OCC(=O)O` [PG687tris, Tris(hydroxymethyl)aminomethane Salt of Triptolide 14-Hydroxycarbonyl-methyl Carbonate], in data set [1] (setting [4]), the EC50 is 960 nM. Also, the “Conversion, as relative ED50 compared to triptolide (%)” value in data set [1] (setting [5]) was 6%. Further, the “max. conversion at 48 hr in human plasma by HPLC” value in data set [2] (incomplete conversion to triptolide, 48 hr incubation) is “max. 10% at”. Also, 29 nM corresponded to half-maximal inhibition in data set [3] (Homo sapiens, Jurkat, 48 h) (IC50). The “Conversion (%)” value in data set [3] is reported as 6%.
In the case of `CC(C)[C@]12O[C@H]1[C@@H]1O[C@]13[C@]1(O[C@H]1C[C@H]1C4=C(CC[C@@]13C)C(=O)OC4)[C@@H]2OC(=O)OCCN(C)C` [PG682, Triptolide 14-Dimethylaminoethyl Carbonate], the EC50 was 66 nM in data set [1] (1 h, read-out: ED50 (nM) in apoptosis assay after incubation with serum, incubation time in human serum 1 hour, 37° C.) and 32 nM in data set [1] (setting [4]). The “Conversion, as relative ED50 compared to triptolide (%)” value is 76% in data set [1] (incubation time in human serum 1 hour) and 146% in data set [1] (setting [5]). For the same compound, the half-life – broadly, the time in which the quantity being followed falls by half – in data set [2] (human, plasma) was determined as 17 min. Also, half-maximal inhibition in data set [3] (IC50) was put at 23 nM. In addition, in data set [3], the “Conversion (%)” value is 78%.
